Laboratory results reported in patent US20150105252A1, “SUBSTITUTED PYRAZOLES AS HERBICIDES” (E I DU PONT DE NEMOURS AND COMPANY, priority 2013, published 2015).

Assays:
soybean = assay: Test C postemergence; format: in vivo, Glycine max; details: postemergence; for Soybean plant response rating: 62 g ai/ha, scale 0 to 100
From the text: (§1) Seeds of plant species selected from blackgrass (Alopecurus myosuroides), ryegrass, Italian (Italian ryegrass, Lolium multiflorum), wheat (winter wheat, Triticum aestivum), galium (catchweed bedstraw, Galium aparine), corn (Zea mays), crabgrass, large (large crabgrass, Digitaria sanguinalis), foxtail, giant (giant foxtail, Setaria faberii), johnsongrass (Sorghum halepense), lambsquarters (Chenopodium album), morningglory (Ipomoea coccinea), nutsedge, yellow (yellow nutsedge, Cyperus esculentus), pigweed (redroot pigweed, Amaranthus retroflexus), ragweed (common ragweed, Ambrosia elation), soybean (Glycine max), barnyardgrass (Echinochloa crus-galli), oilseed rape (Brassica napus), waterhemp (common waterhemp, Amaranthus rudis), oat, wild (wild oat, Avena fatua), kochia (Kochia scoparia), Surinam grass (Brachiaria decumbens), foxtail, green (green foxtail, Setaria viridis), goosegrass (Eleusine indica), bromegrass, downy (downy bromegrass, Bromus tectorum), nightshade (eastern black nightshade, Solanum ptycanthum), cocklebur (common cocklebur, Xanthium strumarium), cupgrass, woolly (woolly cupgrass, Eriochloa villosa), bermudagrass (Cynodon dactylon), sunflower, (common oilseed sunflower, Helianthus annuus), Russian thistle (Salsola kali), and velvetleaf (Abutilon theophrasti) were planted into a blend of loam soil and sand and treated preemergence with test chemicals formulated in a non-phytotoxic solvent mixture which included a surfactant.
(§2) At the same time, plants selected from these crop and weed species and also chickweed (common chickweed, Stellaria media), canarygrass (littleseed canarygrass, Phalaris minor), and deadnettle (henbit deadnettle, Lamium amplexicaule), were planted in pots containing Redi-Earth® planting medium (Scotts Company, 14111 Scottslawn Road, Marysville, Ohio 43041) comprising spaghnum peat moss, vermiculite, wetting agent and starter nutrients and treated with postemergence applications of test chemicals formulated in the same manner. Plants ranged in height from 2 to 18 cm (1- to 4-leaf stage) for postemergence treatments. Treated plants and controls were maintained in a greenhouse for 13 to 15 days, after which time all species were compared to controls and visually evaluated. Plant response ratings, summarized in Table C, are based on a scale of 0 to 100 where 0 is no effect and 100 is complete control. A dash (-) response means no test result.

johnsongrass = assay: Test C postemergence; format: in vivo, Sorghum halepense; details: for Johnsongrass plant response rating: Postemergence, 31 g ai/ha, scale 0 to 100; for Plant response rating, Johnsongrass: postemergence
From the text: as §1, §2

nutsedge, yellow [1] = assay: Test C postemergence; format: in vivo, Cyperus esculentus; details: for Nutsedge, Yellow plant response rating: Postemergence, 31 g ai/ha, scale 0 to 100; for Plant response rating, Nutsedge, Yellow: postemergence
From the text: as §1, §2

crabgrass, large = assay: Test A postemergence; format: in vivo, Digitaria sanguinalis
Summary of the method: (§3)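 Both timings tested concurrently in loam/sand soil: preemergence by directed soil spray, postemergence on plants of 2–10 cm at the one- to two-leaf stage. Greenhouse holding period was approximately 10 days before visual injury assessment (0–100, 0 = no effect).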

kochia = assay: Test C postemergence; format: in vivo, Kochia scoparia; details: for Kochia plant response rating: Postemergence, 31 g ai/ha, scale 0 to 100; for Plant response rating, Kochia: postemergence
From the text: as §1, §2

barnyardgrass = assay: Test A preemergence; format: in vivo, Echinochloa crus-galli; details: 0 to 100 scale
Summary of the method: as §3

velvetleaf = assay: Test C preemergence; format: in vivo, Abutilon theophrasti
From the text: as §1, §2

nutsedge, yellow [2] = assay: Test C preemergence; format: in vivo, Cyperus esculentus
From the text: as §1, §2

morningglory = assay: Test C preemergence; format: in vivo, Ipomoea coccinea
From the text: as §1, §2

lambsquarters = assay: Test C preemergence; format: in vivo, Chenopodium album
From the text: as §1, §2

[3] = 250 g ai/ha, scale 0 to 100 (0 no effect, 100 complete control)
[4] = 125 g ai/ha, scale 0 to 100, 0 no effect, 100 complete control
[5] = 62 g ai/ha, scale 0 to 100, 0 no effect, 100 complete control
[6] = Postemergence, 1000 g ai/ha, visual rating after approx. 10 days, 0 to 100 scale (0 no effect, 100 complete control)
[7] = Preemergence, 1000 g ai/ha, 0 no effect, 100 complete control
[8] = preemergence, 31 g ai/ha, scale 0 to 100 (0 no effect, 100 complete control), 13 to 15 days
[9] = preemergence, 62 g ai/ha, 13 to 15 days, scale 0 to 100, 0 = no effect, 100 = complete control
[10] = preemergence, 125 g ai/ha, scale 0 to 100, 0 is no effect, 100 is complete control

Row | Structure (SMILES) | Soybean plant response rating (soybean) | Plant response rating, Soybean (soybean; [3]) | Plant response rating, Soybean (soybean; [4]) | Johnsongrass plant response rating (johnsongrass) | Plant response rating, Johnsongrass (johnsongrass; [3]) | Plant response rating, Johnsongrass (johnsongrass; [5]) | Plant response rating, Johnsongrass (johnsongrass; [4]) | Nutsedge, Yellow plant response rating (nutsedge, yellow [1]) | Plant response rating, Nutsedge, Yellow (nutsedge, yellow [1]; [3]) | Plant response rating, Nutsedge, Yellow (nutsedge, yellow [1]; [5]) | Plant response rating, Nutsedge, Yellow (nutsedge, yellow [1]; [4]) | Crabgrass, Large plant response rating (crabgrass, large; [6]) | Kochia plant response rating (kochia) | Plant response rating, Kochia (kochia; [3]) | Plant response rating, Kochia (kochia; [5]) | Plant response rating, Kochia (kochia; [4]) | Barnyardgrass plant response rating (barnyardgrass; [7]) | also measured
1 | CCc1cc(C(=O)NCC(F)(F)F)nn1Cc1cccc(OC(F)(F)F)c1 [Compound 20] | 45 | 75 | 60 | 0 | 10 | 0 | 5 | 0 | 0 | 0 | 0 | 80 | 90 | 98 | 95 | 98 | 80 | 
2 | CCCNC(=O)c1cc(CC)n(Cc2cccc(OC(F)(F)F)c2)n1 [Compound 27] | 65 | 75 | 70 | 0 | 5 | 0 | 5 | 0 | 0 | 0 | 0 | 80 | 35 | 95 | 70 | 80 | 50 | 
3 | CCc1cc(C(=O)NOC(C)C)nn1Cc1cccc(OC(F)(F)F)c1 [Compound 70] | 55 | 65 | 55 | 0 | 75 | 0 | 10 | 0 | 20 | 0 | 0 |  | 50 | 70 | 55 | 55 |  | Plant response rating (scale of 0 to 100), Velvetleaf (velvetleaf; Preemergence, 250 g ai/ha): 100; Velvetleaf plant response rating (velvetleaf; [8]): 20; Plant response rating, Velvetleaf (velvetleaf; [9]): 60; Velvetleaf plant response rating (velvetleaf; [10]): 75; Plant response rating (scale of 0 to 100), Nutsedge, Yellow (nutsedge, yellow [2]; Preemergence, 250 g ai/ha): 85; Nutsedge, Yellow plant response rating (nutsedge, yellow [2]; [8]): 0; Plant response rating, Nutsedge, Yellow (nutsedge, yellow [2]; [9]): 65; Nutsedge, Yellow plant response rating (nutsedge, yellow [2]; [10]): 70; Plant response rating (scale of 0 to 100), Morningglory (morningglory; Preemergence, 250 g ai/ha): 95; Morningglory plant response rating (morningglory; [8]): 0; Plant response rating, Morningglory (morningglory; [9]): 25; Morningglory plant response rating (morningglory; [10]): 75; Plant response rating (scale of 0 to 100), Lambsquarters (lambsquarters; Preemergence, 250 g ai/ha): 100; Lambsquarters plant response rating (lambsquarters; [8]): 98; Plant response rating, Lambsquarters (lambsquarters; [9]): 98; Lambsquarters plant response rating (lambsquarters; [10]): 100; Crabgrass, Large plant response rating (crabgrass, large; Postemergence, 500 g ai/ha, visual rating after approx. 10 days, 0 to 100 scale (0 no effect, 100 complete control)): 90; Crabgrass, Large plant response rating (crabgrass, large; postemergence, 125 g ai/ha, about 10 days, visual rating on 0 to 100 scale (0 no effect, 100 complete control)): 90; Barnyardgrass plant response rating (barnyardgrass; Preemergence, 500 g ai/ha, 0 no effect, 100 complete control): 100; Barnyardgrass plant response rating (barnyardgrass; preemergence, 125 g ai/ha, visual injury, approx. 10 days): 80
